ChEMBL document CHEMBL1201862, “PubChem BioAssay data set” (2004)
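1) Cells in 96-well plates. 2) Compound, 48 h, 5 concentrations. 3) Linear interpolation between surrounding doses. 4) Unreached endpoint = highest concentration. The concentration for 50% growth inhibition is given as GI50.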 Activity calls are given as the source filed them. Rule as the data show it: active = GI50 up to about 1.1 µM and inactive = higher.

Tests used:
Test in all cases: NCI-60 cell line screen, 48 h
[1] = tested on: NCI-H522
[2] = tested on: HCT-15
[3] = tested on: TK-10
[4] = tested on: SNB-75
[5] = tested on: SF-295
[6] = tested on: 786-0
[7] = tested on: Hs-578T
[8] = tested on: KM12
[9] = tested on: SK-MEL-5
[10] = tested on: T47D
[11] = tested on: M14
[12] = tested on: U-251
[13] = tested on: UACC-257
[14] = tested on: HOP-92
[15] = tested on: OVCAR-4
[16] = tested on: UO-31
[17] = tested on: NCI-H23
[18] = tested on: RXF 393
[19] = tested on: NCI-H460

Row | Structure (SMILES) | GI50 [1] | GI50 [2] [µM] | GI50 [3] | GI50 [4] | GI50 [5] | GI50 [6] | GI50 [7] | GI50 [8] | GI50 [9] | GI50 [10] | GI50 [11] | GI50 [12] | GI50 [13] | GI50 [14] | GI50 [15] | GI50 [16] | GI50 [17] | GI50 [18] | GI50 [19]
1 | Cc1cc(Nc2ccc(S(=O)(=O)O)cc2)c2ccccc2n1 | > 100 µM (inactive) | > 100 | > 100 µM (inactive) | > 100 µM (inactive) | > 100 µM (inactive) | > 100 µM (inactive) | > 100 µM (inactive) | > 100 µM (inactive) | > 100 µM (inactive) | > 100 µM (inactive) | > 100 µM (inactive) | > 100 µM (inactive) | > 100 µM (inactive) | > 100 µM (inactive) | > 100 µM (inactive) | > 100 µM (inactive) | > 100 µM (inactive) | – | –
2 | C=CC1(CC/C(=C\[N+](=O)[O-])c2ccc(OC)c(OC)c2)OCC(C)(C)CO1 | 13.8 µM (inactive) | 12.7 | 17.5 µM (inactive) | – | 18.7 µM (inactive) | 17.1 µM (inactive) | 24 µM (inactive) | 15.5 µM (inactive) | 13.1 µM (inactive) | 14.5 µM (inactive) | 17.8 µM (inactive) | 23.1 µM (inactive) | 10.2 µM (inactive) | 18.2 µM (inactive) | 11.6 µM (inactive) | 15.1 µM (inactive) | 14.1 µM (inactive) | 12.9 µM (inactive) | 18.2 µM (inactive)
3 | COCC([C@@H](O)C(O)C(=O)NCC[C@@H](C)c1nc(/C=C/CC2OC3(C[C@H](O)C2C)OC(C(C[C@H](O)C(C)[C@H](O)C(C)/C=C(C)/C(C)=C/C=C/C(C)=C/C#N)OC)[C@@H](OP(=O)(O)O)C3(C)C)co1)N(C)C (stereo partly specified) | 0.000167 µM (active) | 0.000202 | 0.000115 µM (active) | 0.000182 µM (active) | 0.000184 µM (active) | 0.000176 µM (active) | 0.000196 µM (active) | 0.000184 µM (active) | 0.000159 µM (active) | 0.000703 µM (active) | 0.000173 µM (active) | 0.000191 µM (active) | 0.00105 µM (active) | 0.000175 µM (active) | 0.00137 µM (active) | 0.00118 µM (active) | 0.000762 µM (active) | – | 0.000139 µM (active)
4 | NS(=O)(=O)c1nnc(/N=C(/CCC(=O)O)C(=O)O)s1 | > 100 µM (inactive) | > 100 | > 100 µM (inactive) | > 100 µM (inactive) | > 100 µM (inactive) | > 100 µM (inactive) | > 100 µM (inactive) | 20.5 µM (inactive) | > 100 µM (inactive) | > 100 µM (inactive) | > 100 µM (inactive) | > 100 µM (inactive) | > 100 µM (inactive) | > 100 µM (inactive) | > 100 µM (inactive) | > 100 µM (inactive) | > 100 µM (inactive) | – | > 100 µM (inactive)
5 | C[C@]12Cc3cnc(-c4ccccc4)nc3C[C@@H]1CC[C@@H]1[C@@H]2CC[C@@]2(C)[C@H]1CC[C@]2(C)O | 10.7 µM (inactive) | 9.44 | 23.2 µM (inactive) | 6.12 µM (inactive) | 14.8 µM (inactive) | 10.2 µM (inactive) | 17.4 µM (inactive) | 13.9 µM (inactive) | 17.7 µM (inactive) | 11 µM (inactive) | 11.1 µM (inactive) | 16 µM (inactive) | 20.2 µM (inactive) | 22.8 µM (inactive) | 14.4 µM (inactive) | 3.03 µM (inactive) | 17.6 µM (inactive) | – | 17.3 µM (inactive)
6 | O=C1C2C=CC1C1C(=O)OC(=O)C21 (stereo unspecified) | > 100 µM (inactive) | > 100 | > 100 µM (inactive) | > 100 µM (inactive) | > 100 µM (inactive) | > 100 µM (inactive) | > 100 µM (inactive) | > 100 µM (inactive) | > 100 µM (inactive) | > 100 µM (inactive) | > 100 µM (inactive) | > 100 µM (inactive) | > 100 µM (inactive) | > 100 µM (inactive) | > 100 µM (inactive) | > 100 µM (inactive) | > 100 µM (inactive) | – | > 100 µM (inactive)
7 | O=C(c1ccccc1)c1ccc2[nH]c(-c3c(Cl)c(Cl)c(Cl)c(Cl)c3C(=O)N/N=C/c3cccc(Oc4ccccc4)c3)nc2c1 | 45 µM (inactive) | 45.4 | > 100 µM (inactive) | 60.8 µM (inactive) | 54.7 µM (inactive) | > 100 µM (inactive) | > 100 µM (inactive) | > 100 µM (inactive) | 90.6 µM (inactive) | 36.1 µM (inactive) | > 100 µM (inactive) | 54.7 µM (inactive) | > 100 µM (inactive) | 55.7 µM (inactive) | 99.3 µM (inactive) | > 100 µM (inactive) | 74.1 µM (inactive) | 68.2 µM (inactive) | –
8 | COc1ccc(C(OCC2OC(n3cc(C)c(=O)[nH]c3=O)CC2n2cc(Cn3cc(I)c(=O)[nH]c3=O)nn2)(c2ccccc2)c2ccccc2)cc1 (stereo unspecified) | > 100 µM (inactive) | > 100 | > 100 µM (inactive) | 48.6 µM (inactive) | > 100 µM (inactive) | > 100 µM (inactive) | 44.8 µM (inactive) | 14.2 µM (inactive) | > 100 µM (inactive) | > 100 µM (inactive) | > 100 µM (inactive) | > 100 µM (inactive) | > 100 µM (inactive) | > 100 µM (inactive) | > 100 µM (inactive) | > 100 µM (inactive) | > 100 µM (inactive) | > 100 µM (inactive) | –
9 | O=C(C1=CCC2(CC1)OCCO2)N(Cc1ccccc1)c1ccccc1I | – | 23 | 21.5 µM (inactive) | 14.1 µM (inactive) | 21.4 µM (inactive) | 18.8 µM (inactive) | 0.181 µM (active) | 14.1 µM (inactive) | 13.9 µM (inactive) | 18.4 µM (inactive) | 16.9 µM (inactive) | 19.9 µM (inactive) | 19.2 µM (inactive) | 16.1 µM (inactive) | 14.9 µM (inactive) | 17.6 µM (inactive) | 19.7 µM (inactive) | 28.3 µM (inactive) | 18.9 µM (inactive)
10 | CNS(=O)(=O)c1ccccc1C(=N)c1ccccc1 | > 100 µM (inactive) | > 100 | > 100 µM (inactive) | 56.4 µM (inactive) | > 100 µM (inactive) | > 100 µM (inactive) | > 100 µM (inactive) | > 100 µM (inactive) | > 100 µM (inactive) | > 100 µM (inactive) | > 100 µM (inactive) | > 100 µM (inactive) | – | > 100 µM (inactive) | > 100 µM (inactive) | > 100 µM (inactive) | > 100 µM (inactive) | > 100 µM (inactive) | > 100 µM (inactive)
11 | O=C(Nc1ccccc1C(=O)O)/C(=C/c1ccccc1)NC(=O)c1ccccc1 | > 100 µM (inactive) | > 100 | – | > 100 µM (inactive) | > 100 µM (inactive) | > 100 µM (inactive) | > 100 µM (inactive) | > 100 µM (inactive) | > 100 µM (inactive) | > 100 µM (inactive) | > 100 µM (inactive) | > 100 µM (inactive) | > 100 µM (inactive) | > 100 µM (inactive) | – | > 100 µM (inactive) | > 100 µM (inactive) | 65.9 µM (inactive) | > 100 µM (inactive)
